Data from patent US7619008B2, “Xylitol for treatment of vaginal infections” (Kimberly-Clark Worldwide, Inc., priority 2004, dated 2009).
Each block holds one molecule with its values, some of them ahead of it.

Experiments:
Gardnerella vaginalis [1] = assay: Optical density after 24 hours (Example 13); assay type: cell-based; settings: 1.0% (wt/vol) in growth medium pH 6.0, after 24 hours (FIG. 12)
Method: A growth medium for Gardnerella vaginalis was prepared according to the manufacturer's instructions, and the pH of this medium was adjusted to pH 6.0 using 1N HCl. D-ribose (99%, Calbiochem), D-arabinose (98%, Alfa Aesar), D-xylose (Aldrich), D-lyxose (99%, Avovado), D-arabitol (97%, Alfa Aesar), adonitol (99%, Alfa Aesar), xylitol (99%, Alfa Aesar), xylitol (98%, Danisco), and xylitol (98%, Aldrich) were then dissolved into the growth medium at a concentration of 1.0% (wt/vol). 0.9 milliliters of the culture medium was also added into a different culture tube as a control. Thereafter, 0.1 milliliter of Garnerella vaginalis culture suspension (concentration of 1×10^6/milliliter) was added to each of the culture tubes, and then incubated overnight at 37° C., and the optical density was then measured after 24 hours at a wavelength of 595 nanometers. This was accomplished by pipetting 100 microliters of the control or sample solutions into 96-well microplates, and then using a ThermoMax Microplate Reader from Molecular Devices of Sunnyvale, Calif. to obtain the optical density readings. The results are depicted in FIG. 12.

Gardnerella vaginalis [2] = assay: Average plate count after 24 hours with gel compositions and solutions (Example 8); assay type: cell-based; settings: 1 ml sample + 0.8 ml growth medium + 0.2 ml suspension, 24 hours at 37° C., triplicate, compositions per Table 8
Method: Samples 1-2 were prepared by dissolving the KELCOGEL® (0.07 grams) and/or xylitol (0.44 grams) into 10 milliliters of water heated to between 70° C. to 80° C. Samples 3-4 and 6 were formed by first autoclaving a gallic acid stock solution (0.75 grams of gallic acid/20 mL water), autoclaving, and then adding 200 microliters of sterile gallic acid (0.0075 grams) to each sterile solution. Sample 5 was formed by dissolving 0.44 grams of xylitol in deionized water, followed by autoclaving. Sample 7 was formed by dissolving 0.44 grams of xylitol in sterilized growth medium for Gardnerella vaginalis and then filtering. The amount of xylitol was selected to yield isotonic solutions. After vortexing the solutions to help dissolve the solids, they were allowed to cool to room temperature.
Upon formation, 1 milliliter of each control or sample solution was then added into a culture tube, followed by the addition of 0.8 milliliters of growth medium for Gardnerella vaginalis. To this mixture was added 0.2 milliliters of a Gardnerella vaginalis suspension (at a concentration of around 10^6 cfu/ml; diluted from 10^8 cfu/ml stock). The tubes were incubated in culture tubes at 37° C. After 24 and 48 hours, the optical density was measured for each sample at wavelengths of 450 and 595 nanometers. The 24-hr solution samples were then diluted at 0.001× and 0.0001×. 3 milliliters of growth medium were then added into the 24-hour composition samples, followed by 1 hour of shaking at 30° C. Solution was then taken from well-shaken test tubes and diluted at 0.001× and 0.0001×. “WASP” (Whitely Automatic Spiral Plate) spiral plating equipment from Don Whitely Scientific Limited was used to plate 100 microliters of the above solutions onto agar plates. The plates were incubated overnight at 35° C. The number of colonies on each plate was counted using ProtoCol® software from Synbiosis of Frederick, Md. All samples were plated in triplicate.

Gardnerella vaginalis [3] = assay: Zone of inhibition on agar plates (Examples 1 and 4); assay type: cell-based; settings: 10%, tested as in Example 1
Method: Gardnerella vaginalis was obtained from the American Type Culture Collection (ATCC #14018). The culture medium was Casman's medium base (BD 229010) with 5% rabbit blood (ATCC medium 70).
A microorganism culture of 10^5cfu (colony forming units)/ml in a 1× phosphate buffered saline (PBS) solution (diluted from 10× PBS LIQUID CONCENTRATE from VWR Cat. No. EM-6507] was used. One milliliter of the solution was plated on proper agar plates, depending on which microorganism was being tested. The agar plates were incubated at 35° C. for 4 hours. Three 4-millimeter diameter wells were then punched in each agar plate. […] No. 28390, Pierce Biotechnology, Inc., Rockford, Ill.) was added to one well of each plate. Into each of the other two wells were added MES buffer and 1% benzyl quats (diluted from BARDAC® 205M, from Lonza Inc., Fair Lawn, N.J.) as negative and positive controls, respectively. The plates were incubated overnight at 35° C.
The following day, the “zone of inhibition” for each sample was then measured for Gardnerella vaginalis and Lactobacillus acidophilus activity. The “zone of inhibition” is a circular zone formed around the agar plate in which the growth of the microorganism is inhibited. Absent treatment with an effective antimicrobial agent, the bacterial cells would normally produce an opaque lawn of growth. However, when growth is inhibited, a clear zone is observed. […]

[4] = system: Lactobacillus acidophilus; assay: as above; assay type: cell-based; settings: 10%, tested as in Example 1
Method: Lactobacillus acidophilus was obtained from the American Type Culture Collection (ATCC #4356). The culture medium was Lactobacilli MRS broth (ATCC medium 416).
A microorganism culture of 10^5cfu (colony forming units)/ml in a 1× phosphate buffered saline (PBS) solution (diluted from 10× PBS LIQUID CONCENTRATE from VWR Cat. No. EM-6507] was used. One milliliter of the solution was plated on proper agar plates, depending on which microorganism was being tested. The agar plates were incubated at 35° C. for 4 hours. Three 4-millimeter diameter wells were then punched in each agar plate. A test sample of 100 microliters of 5% xylitol in sterilized 2-N-morpholino ethane sulfonic buffer (0.1 M 2-[morpholino]-ethanesulfonic acid, 0.9% NaCl, pH 4.7, prepared from BupH™ MES Buffer Saline Pack from Cat. No. 28390, Pierce Biotechnology, Inc., Rockford, Ill.) was added to one well of each plate. Into each of the other two wells were added MES buffer and 1% benzyl quats (diluted from BARDAC® 205M, from Lonza Inc., Fair Lawn, N.J.) as negative and positive controls, respectively. The plates were incubated overnight at 35° C.
The following day, the “zone of inhibition” for each sample was then measured for Gardnerella vaginalis and Lactobacillus acidophilus activity. The “zone of inhibition” is a circular zone formed around the agar plate in which the growth of the microorganism is inhibited. […]

Gardnerella vaginalis [5] = assay: Optical density of culture tubes (Example 2); assay type: cell-based; settings: 2, 4, 6 and 24 hours at 37° C., n=4
Method: (§1) Test compounds were dissolved in culture media to form a suspension. Control or xylitol solutions (0.9 milliliters) were filtered and added into culture tubes, and to this was added 0.1 milliliter of either the Gardnerella vaginalis or Lactobacillus acidophilus suspension at a concentration of around 10^6 cfu/milliliter. The culture tubes were then incubated overnight at 37° C., whereafter the optical density was measured at 2, 4, 6 and 24 hours by pipetting 100 microliters of the control or sample solutions into 96-well microplates, and then using a ThermoMax Microplate Reader (Molecular Devices of Sunnyvale, Calif.) to obtain the optical density readings at 590 or 600 nm wavelengths. […] The inhibition effect remained evident throughout the 24-hour experimental period.

[6] = system: Lactobacillus acidophilus; assay: Optical density of culture tubes (Example 2); assay type: cell-based; settings: 2, 4, 6 and 24 hours at 37° C., n=4
Method: as §1

Candida albicans = assay: Viable cell count after 24 hours (Example 12); assay type: cell-based; settings: xylitol 1%, 2%, 3%, 4%, 5.0% (wt/vol) in YM medium pH 6.0, after 24 hours (FIG. 11)
Method: A YM culture medium was prepared according to the manufacturer's instructions, and the pH of this medium was adjusted to pH 6.0 using 1N HCl. Xylitol was then dissolved into the YM medium at concentrations of 1%, 2%, 3%, 4%, and 5.0% (wt/vol). 0.9 milliliters of the culture medium were also added into a different culture tube as a control. Thereafter, 0.1 milliliter of Candida albicans culture suspension (concentration of 1×10^6/milliliter) was added to each of the culture tubes, and then incubated at 37° C. The viable Candida albicans cells in each tube were counted under a microscope after 24 hours. The above procedure was repeated four times for each concentration and the control.

Trichomonas vaginalis = assay: Viable cell count under microscope (Example 10); assay type: cell-based; settings: for Trichomonas vaginalis cell count in comparison to the control group: xylitol 0.5%, 3.0%, 5.0%
Method: Trichomonas vaginalis was obtained from the American Type Culture Collection (ATCC #30001). The culture medium was LYI-S-2 medium (ATCC medium 2154). A sterile LYI-S-2 medium was prepared according to the manufacturer's instructions, and the pH of this medium was adjusted to pH 6.0 using 1 N HCl. Xylitol was then dissolved into the LYI-S-2 medium at concentrations of 0.5%, 3.0%, and 5.0% (wtvol). 0.9 milliliters of xylitol and culture medium (as control) were also added into different culture tubes. Thereafter, 0.1 milliliter of Trichomonas vaginalis culture suspension (concentration of 1×10^6/milliliter) was added to each of the culture tubes, and then incubated at 35° C. on a 15 degree horizontal slant. The viable Trichomonas vaginalis cells in each tube were counted under a microscope after 24 and 48 hours. The above procedure was repeated four times for each concentration of xylitol and the control.

[7] = pH and gelation properties of acid-modified KELCOGEL/xylitol solutions (Example 5); assay type: physicochemical; settings: 4.4% (wt/vol) xylitol in 0.7% KELCOGEL solutions
Method: Solutions were formed from xylitol and a gellan gum obtained from CP Kelco U.S., Inc. of Chicago, Ill. under the name KELCOGEL®. The solutions contained 0.7% (wt/vol) of the KELCOGEL® gum and 4.4% (wt/vol) xylitol, and were formed by dissolving 0.07 grams of the polymer powder and 0.44 grams of xylitol into 10 milliliters of water at a temperature between 70° C. to 80° C. After vortexing the solutions to help dissolve the solids, they were allowed to cool to room temperature. After cooling, the pH of the solutions was adjusted using varying amounts of either acetic acid or lactic acid.

Gardnerella vaginalis [8] = assay: Plate count after 6 hours treatment (Example 3); assay type: cell-based; settings: for Plate Count, G. Vaginalis: 6 hours at 37° C., n = 4
Method: (§2) Test compounds were dissolved in culture media to form a suspension. Control or xylitol solutions (0.9 milliliters) were filtered and added into culture tubes. To these solutions, 0.1 milliliter of the Gardnerella vaginalis or Lactobacillus acidophilus suspension was then added at a concentration of around 10^6 cfu/milliliter. The culture tubes were incubated at 37° C. for 6 hours. The samples in the culture tubes were then diluted at 1, 10 and 100 times, and 100 microliters of each dilution was plated onto agar plates with WASP (Whitely Automatic Spiral Plate) spiral plating equipment from Don Whitely Scientific Limited, USA. The plates were incubated overnight at 35° C., and the numbers of colonies were counted on each plate by either ProtoCol® from Synbiosis, Frederick, Md., USA Whitely Scientific Limited, USA or by hand count. The results are shown below in Tables 2-3 and in FIG. 2,

[9] = system: Lactobacillus acidophilus; assay: Plate count after 6 hours treatment (Example 3); assay type: cell-based; settings: for Plate Count, L. acidophilus: 6 hours at 37° C., n = 4
Method: as §2

SMILES: O=C[C@H](O)[C@H](O)[C@H](O)CO [D-ribose]
Gardnerella vaginalis cell count in comparison to the control group (optical density 595 nanometers) (Gardnerella vaginalis [1]): significantly reduced

SMILES: O=C(O)c1cc(O)c(O)c(O)c1 [Gallic acid, trihydroxybenzoic acid]
Average Plate Count, Gardnerella vaginalis (Gardnerella vaginalis [2]): 3.43 × 10^4

SMILES: OC[C@@H](O)[C@H](O)[C@@H](O)CO [Xylitol in growth media, xylitol]
Average Plate Count, Gardnerella vaginalis (Gardnerella vaginalis [2]): 2.40 × 10^4

SMILES: O=C[C@H](O)[C@@H](O)[C@H](O)[C@H](O)CO [glucose]
zone of inhibition, Gardnerella vaginalis (Gardnerella vaginalis [3]): 0 mm
zone of inhibition, Lactobacillus acidophilus [4]: 0 mm

SMILES: OC[C@@H](O)[C@@H](O)[C@H](O)[C@@H](O)CO [sorbitol]
zone of inhibition, Gardnerella vaginalis (Gardnerella vaginalis [3]): 0 mm
zone of inhibition, Lactobacillus acidophilus [4]: 0 mm

effect on gelation ability of the polymer [7]: did not appear to negatively impact
SMILES: OC[C@@H](O)[C@H](O)[C@@H](O)CO [xylitol, D-xylitol]
inhibition of growth of Gardnerella vaginalis (optical density, FIG. 3) (Gardnerella vaginalis [5]): significant inhibition
inhibition of growth of Lactobacillus acidophilus (optical density, FIG. 4) [6]: did not exhibit any significant inhibition
Gardnerella vaginalis cell count in comparison to the control group (optical density 595 nanometers) (Gardnerella vaginalis [1]): significantly reduced
Candida albicans cell count in comparison to the control group (Candida albicans): significantly reduced
live Trichomonas vaginalis cells (Trichomonas vaginalis; 3% xylitol, after 48 hours): No live
live Trichomonas vaginalis cells (Trichomonas vaginalis; 5% xylitol, after 48 hours): No live
Trichomonas vaginalis cell count in comparison to the control group (Trichomonas vaginalis; after 24 hours, pH 6.0, 35° C. (FIG. 8)): significantly reduced
Trichomonas vaginalis cell count in comparison to the control group (Trichomonas vaginalis; after 48 hours, pH 6.0, 35° C. (FIG. 9)): even more significant inhibitory effect
Average Plate Count, Gardnerella vaginalis (Gardnerella vaginalis [2]): significant inhibition
Average Plate Count, Gardnerella vaginalis (Gardnerella vaginalis [2]; listed as Xylitol): 1.56 × 10^4
Plate Count, G. Vaginalis (Gardnerella vaginalis [8]; 1% xylitol): *1.24E+05
Plate Count, G. Vaginalis (Gardnerella vaginalis [8]; 2% xylitol): *1.64E+03
Plate Count, G. Vaginalis (Gardnerella vaginalis [8]; 3% xylitol): *4.63E+02
Plate Count, G. Vaginalis (Gardnerella vaginalis [8]; 4% xylitol): *1.03E+02
Plate Count, G. Vaginalis (Gardnerella vaginalis [8]; 5% xylitol): *1.98E+01
inhibition of Gardnerella vaginalis growth compared to the control group (Gardnerella vaginalis [8]; all five concentrations (1-5% xylitol), 6 hours): significant inhibition
inhibition of the growth of Lactobacillus acidophilus ([9]; 1% and 5% xylitol, 6 hours): did not exhibit any significant inhibition
Plate Count, L. acidophilus ([9]; 1% xylitol): 3.77 ± 0.49 E+05
Plate Count, L. acidophilus ([9]; 5% xylitol): 3.97 ± 0.36 E+05
